Experimental data from PubChem BioAssay (NCI).
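Compound exposure: 48 hours, 5 concentrations, 96-well plates. Abbreviation: GI50, concentration required for 50% inhibition of growth. TGI denotes the concentration required for complete inhibition of growth.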

Columns and labels:
Test in all cases: NCI-60 cell line screen, 48 h
786-0 renal = system: 786-0 renal
ACHN renal = system: ACHN renal
EKVX NSCLC = system: EKVX NSCLC
HCT-116 colon = system: HCT-116 colon
HCT-15 colon = system: HCT-15 colon
HT29 colon = system: HT29 colon
OVCAR-5 ovarian = system: OVCAR-5 ovarian
SK-OV-3 ovarian = system: SK-OV-3 ovarian
TK-10 renal = system: TK-10 renal
NCI-H522 lung = system: NCI-H522 lung

Compound | GI50 (786-0 renal) [µM] | TGI (786-0 renal) [µM] | GI50 (ACHN renal) [µM] | TGI (ACHN renal) [µM] | GI50 (EKVX NSCLC) [µM] | TGI (EKVX NSCLC) [µM] | GI50 (HCT-116 colon) [µM] | TGI (HCT-116 colon) [µM] | GI50 (HCT-15 colon) [µM] | TGI (HCT-15 colon) [µM] | GI50 (HT29 colon) [µM] | TGI (HT29 colon) [µM] | GI50 (OVCAR-5 ovarian) [µM] | TGI (OVCAR-5 ovarian) [µM] | GI50 (SK-OV-3 ovarian) [µM] | TGI (SK-OV-3 ovarian) [µM] | GI50 (TK-10 renal) [µM] | TGI (TK-10 renal) [µM] | GI50 (NCI-H522 lung) [µM] | TGI (NCI-H522 lung) [µM]
Cc1cc(N/N=C/c2nc(-c3ccccc3)oc2C)c2cc(Cl)ccc2n1 | 1.64 | 3.38 | 1.74 | 3.14 | 1.99 | 4.53 | 1.82 | 3.39 | 1.68 | 3.37 | 1.82 | 3.59 | 1.62 | 3.12 | 1.75 | 3.29 | 1.79 | 3.29 | – | –
N#CC(C#N)=CN1CCN(C(=O)c2ccccc2)C1=S | 38.9 | > 100 | 18.8 | 43.6 | 3.48 | 11.4 | 34 | > 100 | 36.4 | > 100 | 42 | > 100 | – | – | 66.7 | > 100 | 23.3 | 75.1 | 15.9 | 43.7
Cn1c2ccc([N+](=O)[O-])cc2c(=O)c2c(O)cc(O)cc21 | – | 47 | – | > 100 | – | > 100 | – | – | – | > 100 | – | – | – | > 100 | – | – | – | > 100 | – | 24
COC1CC(OS(=O)(=O)c2ccc(C)cc2)C(OS(=O)(=O)c2ccc(C)cc2)C(COS(=O)(=O)c2ccc(C)cc2)O1 (stereo not drawn) | – | 4.06 | – | 12.7 | – | 24.4 | – | > 100 | – | 19 | – | 15.1 | – | 51.5 | – | 8.62 | – | – | – | 16
CCOC(=O)C#Cc1ccc(C#CC(=O)OCC)cc1 | – | > 27.9 | – | > 21.3 | – | > 24.7 | – | 11.2 | – | > 20.2 | – | 5.27 | – | > 21.8 | – | 84.2 | – | 17.8 | – | –
CC[O-].CC[O-].O=Nc1ccc2cc([O-])ccc2c1.O=Nc1ccc2cc([O-])ccc2c1.[Ti+4] | 1.61 | 3.05 | 1.58 | 2.96 | 3.77 | 11.8 | 1.77 | 3.22 | – | – | – | – | 2.36 | 3.84 | 14.6 | 20 | 3.67 | 8.17 | – | –
N#CC1(c2nc3ccccc3o2)C(=O)C(=O)N(c2ccc(Cl)c(Cl)c2)C(=O)C1=O | – | > 100 | – | > 100 | – | > 100 | – | – | – | > 100 | – | > 100 | – | > 100 | – | – | – | > 100 | – | > 100
CN(C)CC#Cc1cccc(C(=O)c2cnn(-c3ccc(F)cc3)c2N)c1 | > 25 | > 25 | > 25 | > 25 | – | – | > 25 | > 25 | > 23.8 | > 25 | > 19.5 | > 25 | > 25 | > 25 | > 25 | > 25 | > 25 | > 25 | > 25 | > 25
CNS(=O)(=O)NN(C)S(=O)(=O)c1ccc(Br)cc1 | – | > 100 | – | > 100 | – | > 100 | – | > 100 | – | > 100 | – | > 100 | – | – | – | – | – | > 100 | – | > 100
COc1ccc(C(=O)/C=C/c2cc(C(=O)c3cc(OC)c(OC)c(OC)c3)ccc2OC)cc1 | 7.71 | > 100 | 3.19 | > 100 | – | – | – | – | – | – | – | – | – | – | > 100 | > 100 | 14 | > 100 | – | –
Nc1ncc(-c2ccc(C(F)(F)F)cc2)c(NC2CCCCCC2)n1 | 32.2 | > 100 | 33.8 | > 100 | – | – | 20.2 | > 100 | 38.8 | > 100 | 40.6 | > 100 | 45.6 | > 100 | > 100 | > 100 | 54.5 | > 100 | 27.7 | > 100
O=C(O)c1ccc(NS(=O)(=O)c2cccc3cccnc23)cc1 | > 100 | > 100 | > 100 | > 100 | – | – | > 100 | > 100 | > 100 | > 100 | > 100 | > 100 | > 100 | > 100 | > 100 | > 100 | – | – | > 100 | > 100
Cc1nn2c(/C=C3/C(=O)Nc4ccccc43)c(-c3ccc(Cl)cc3)nc2s1 | 9.95 | 24.2 | 9.86 | 20 | 20.3 | > 50 | – | – | 15.3 | > 50 | 11.9 | 27 | – | – | – | – | 12.3 | 32.1 | 46 | > 50
CCc1nc2ccc(Cc3ccc(C(=O)NO)cc3)cc2c(=O)n1CCc1ccccc1 | 1.71 | 3.41 | – | – | 1.21 | 3.14 | 0.388 | 1.57 | 0.528 | 3.07 | 0.919 | 4.5 | 1.36 | 12.8 | 1.44 | 2.88 | 1.28 | 2.89 | 0.302 | 1.68
Cl.Fc1c[c-]c(-c2ccccn2)c(F)c1.[Pt].c1ccc([PH+](CC[PH+](c2ccccc2)c2ccccc2)c2ccccc2)cc1 | 0.231 | 1.06 | 0.271 | 0.993 | – | – | – | – | – | – | – | – | 0.178 | 0.919 | 0.184 | 0.754 | 0.157 | 1.13 | – | –
CCN(CC)C(=S)N/N=C(\C)c1ccccc1O | – | > 100 | – | 61.4 | – | > 100 | – | – | – | > 100 | – | 48 | – | – | – | 79 | – | > 100 | – | 33
CN(C)c1ccc(/C=C2\N=C(c3ccc(N)cc3)OC2=O)cc1 | – | > 100 | – | > 100 | – | > 100 | – | – | – | > 100 | – | > 100 | – | > 100 | – | > 100 | – | > 100 | – | > 100
Cc1nc(Nc2ccc(F)c(Cl)c2)sc1C(=O)O | 1.74 | 3.98 | 1.52 | 3.24 | 0.865 | 5.76 | 1.51 | 3.34 | – | – | 1.67 | 3.44 | 1.7 | 4.1 | 1.83 | 4.33 | 1.96 | 4.09 | 1.1 | 3.17
